Measured values: ChEMBL document CHEMBL1201862, “PubChem BioAssay data set” (2004)
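Five compound concentrations were applied to cells in 96-well plates for 48 hours; endpoints were derived by simple linear interpolation of the resulting dose-response curve. GI50 is the concentration that inhibits growth by half.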 Activity calls are given as the source filed them. Rule as the data show it: active = GI50 up to about 1.1 µM and inactive = higher.

What was measured:
Assay in all cases: inhibition of tumour cell growth, NCI panel, 48 h
[1] = tested on: HOP-92
[2] = tested on: Malme-3M
[3] = tested on: OVCAR-5
[4] = tested on: NCI-H460
[5] = tested on: SNB-19
[6] = tested on: SF-295
[7] = tested on: HOP-62
[8] = tested on: HCC 2998
[9] = tested on: XF498
[10] = tested on: UO-31
[11] = tested on: NCI-H23
[12] = tested on: DMS-273
[13] = tested on: SK-MEL-2
[14] = tested on: TK-10
[15] = tested on: HOP-18
[16] = tested on: HCT-15
[17] = tested on: MOLT-4
[18] = tested on: UACC-62
[19] = tested on: RXF 393
[20] = tested on: RPMI-8226
[21] = tested on: HL-60
[22] = tested on: OVCAR-4
[23] = tested on: A549
[24] = tested on: U-251
[25] = tested on: ACHN
[26] = tested on: NCI-H226
[27] = tested on: OVCAR-8
[28] = tested on: EKVX
[29] = tested on: SNB-75
[30] = tested on: CCRF-CEM
[31] = tested on: KM-20L2
[32] = tested on: A498
[33] = tested on: KM12
[34] = tested on: K562
[35] = tested on: NCI-H522
[36] = tested on: M14
[37] = tested on: SN12C
[38] = tested on: DMS-114
[39] = tested on: SK-MEL-28
[40] = tested on: OVCAR-3
[41] = tested on: DLD-1
[42] = tested on: SR
[43] = tested on: SK-MEL-5
[44] = tested on: LOX IMVI
[45] = tested on: HCT-116
[46] = tested on: HT-29
[47] = tested on: SW-620
[48] = tested on: SF-539
[49] = tested on: SK-OV-3
[50] = tested on: IGROV-1
[51] = tested on: UACC-257
[52] = tested on: SNB-78
[53] = tested on: SF-268
[54] = tested on: M19-MEL
[55] = tested on: COLO 205
[56] = tested on: 786-0
[57] = tested on: CAKI-1

O=C(CC/C=C(/CS(=O)(=O)c1ccccc1)S(=O)(=O)c1ccccc1)c1ccccc1
GI50 [1]: > 100 µM (inactive)
GI50 [2]: > 10 µM (inactive)
GI50 [3]: > 100 µM (inactive)
GI50 [4]: > 100 µM (inactive)
GI50 [5]: > 100 µM (inactive)
GI50 [6]: > 100 µM (inactive)
GI50 [7]: > 100 µM (inactive)
GI50 [8]: > 100 µM (inactive)
GI50 [9]: 95.9 µM (inactive)
GI50 [10]: > 100 µM (inactive)
GI50 [11]: > 100 µM (inactive)
GI50 [12]: > 100 µM (inactive)
GI50 [13]: 50.8 µM (inactive)
GI50 [14]: > 100 µM (inactive)
GI50 [15]: > 100 µM (inactive)
GI50 [16]: > 100 µM
GI50 [17]: > 100 µM (inactive)
GI50 [18]: 22.2 µM (inactive)
GI50 [19]: 70.8 µM (inactive)
GI50 [20]: > 100 µM (inactive)
GI50 [21]: 42.9 µM (inactive)
GI50 [22]: > 100 µM (inactive)
GI50 [23]: > 100 µM (inactive)
GI50 [24]: 72.3 µM (inactive)
GI50 [25]: > 100 µM (inactive)
GI50 [26]: > 100 µM (inactive)
GI50 [27]: > 100 µM (inactive)
GI50 [28]: > 100 µM (inactive)
GI50 [29]: 25.6 µM (inactive)
GI50 [30]: 12.1 µM (inactive)
GI50 [31]: > 100 µM (inactive)
GI50 [32]: > 100 µM (inactive)
GI50 [33]: > 100 µM (inactive)
GI50 [34]: > 100 µM (inactive)
GI50 [35]: 10.4 µM (inactive)
GI50 [36]: > 100 µM (inactive)
GI50 [37]: > 100 µM (inactive)
GI50 [38]: 21.7 µM (inactive)
GI50 [39]: > 100 µM (inactive)
GI50 [40]: 85.5 µM (inactive)
GI50 [41]: > 100 µM (inactive)
GI50 [42]: 56.8 µM (inactive)
GI50 [43]: > 100 µM (inactive)
GI50 [44]: > 100 µM (inactive)
GI50 [45]: > 100 µM (inactive)
GI50 [46]: 75 µM (inactive)
GI50 [47]: > 100 µM (inactive)
GI50 [48]: > 100 µM (inactive)
GI50 [49]: 44 µM (inactive)
GI50 [50]: > 100 µM (inactive)
GI50 [51]: > 100 µM (inactive)

NC(=O)c1ccccc1[N+](=O)[O-]
GI50 [1]: > 100 µM (inactive)
GI50 [2]: > 100 µM (inactive)
GI50 [5]: > 100 µM (inactive)
GI50 [52]: > 100 µM (inactive)
GI50 [7]: > 100 µM (inactive)
GI50 [8]: > 100 µM (inactive)
GI50 [9]: > 100 µM (inactive)
GI50 [12]: > 100 µM (inactive)
GI50 [53]: > 100 µM (inactive)
GI50 [15]: > 100 µM (inactive)
GI50 [16]: > 100 µM
GI50 [17]: > 100 µM (inactive)
GI50 [18]: > 100 µM (inactive)
GI50 [20]: > 100 µM (inactive)
GI50 [54]: > 100 µM (inactive)
GI50 [55]: > 100 µM (inactive)
GI50 [23]: > 100 µM (inactive)
GI50 [24]: > 100 µM (inactive)
GI50 [25]: > 100 µM (inactive)
GI50 [27]: > 100 µM (inactive)
GI50 [28]: > 100 µM (inactive)
GI50 [29]: > 100 µM (inactive)
GI50 [30]: > 10 µM (inactive)
GI50 [31]: > 100 µM (inactive)
GI50 [32]: > 100 µM (inactive)
GI50 [34]: > 100 µM (inactive)
GI50 [56]: > 100 µM (inactive)
GI50 [57]: > 100 µM (inactive)
GI50 [37]: > 100 µM (inactive)
GI50 [38]: > 100 µM (inactive)
GI50 [39]: > 100 µM (inactive)
GI50 [40]: > 100 µM (inactive)
GI50 [43]: > 100 µM (inactive)
GI50 [45]: > 100 µM (inactive)
GI50 [46]: > 100 µM (inactive)
GI50 [47]: > 100 µM (inactive)
GI50 [48]: > 100 µM (inactive)
GI50 [50]: > 100 µM (inactive)
